Data as given in patent publication US10273226B2, “Pyrazolyl-heteroarylamides as pesticides” (Bayer Animal Health GmbH, priority 2014, dated 2019).

Key:
Type in all cases: in vivo
Ctenocephalides felis [1] = assay: Ctenocephalides felis oral test; details: application rate 100 ppm in citrated cattle blood; after 2 days
How it was run: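 About 20 unfed adult cat fleas fed through a parafilm membrane on citrated cattle blood containing compound, dosed from a DMSO stock. Kill in % scored after 2 days; 100% means all fleas dead.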

Boophilus microplus = Boophilus microplus injection test; details: application rate 20 μg/animal; injection into abdomen; assessed after 7 days
How it was run: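 Engorged adult female ticks, five per dose, were injected in the abdomen with 1 μl of active ingredient diluted in dimethyl sulphoxide. Animals were kept in dishes under climate control, and egg fertility was assessed after 7 days.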

Phaedon cochleariae = Phaedon cochleariae spray test; details: larvae, after 7 days
How it was run: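 Chinese cabbage leaf discs were sprayed with the compound formulated in water containing 1000 ppm emulsifier. After drying, they were infested with mustard beetle larvae. Efficacy was scored as % larvae killed after 7 days (100% = all dead, 0% = none).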

Myzus persicae = Myzus persicae spray test; details: after 6 days
Description: Myzus persicae—Spray Test
To produce an appropriate active ingredient formulation, 1 part by weight of active ingredient is dissolved using the specified parts by weight of solvent and made up with water containing an emulsifier concentration of 1000 ppm until the desired concentration is attained. To produce further test concentrations, the preparation is diluted with emulsifier-containing water.
Discs of Chinese cabbage leaves (Brassica pekinensis) infested by all stages of the green peach aphid (Myzus persicae) are sprayed with an active ingredient formulation of the desired concentration.
After 6 days, efficacy in % is determined. 100% means that all the aphids have been killed; 0% means that none of the aphids have been killed.

Rhipicephalus sanguineus = Rhipicephalus sanguineus in vitro contact test with adult brown dog ticks; details: after 48 h, ticks dead or moribund
How it was run: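 Test tubes (25 ml) were coated by dissolving active ingredient in acetone p.a., diluting to the required concentration, and spreading 250 μl over the inner walls and base on an orbital shaker at 30 rpm for 2 h. Once dry, 5-10 adult Rhipicephalus sanguineus were added, and tubes were capped with perforated lids and kept horizontal in darkness at room temperature. At 48 h, ticks were knocked down and heated at 45-50° C. for up to 5 min. Those unable to climb away were counted dead or moribund, and efficacy ran from 0% to 100%.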

Tetranychus urticae = Tetranychus urticae spray test, OP-resistant; details: after 6 days
How it was run: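 Bean leaf discs (Phaseolus vulgaris) carrying all stages of OP-resistant mites are sprayed with compound formulated in solvent and emulsifier-containing water. Efficacy (% mites killed) is scored after 6 days.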

Spodoptera frugiperda = Spodoptera frugiperda spray test; details: caterpillars, after 7 days
How it was run: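 Maize leaf discs were sprayed with compound formulated in solvent plus water containing 1000 ppm emulsifier, dried, then infested with Spodoptera frugiperda caterpillars. Efficacy in % mortality was scored after 7 days (100% all killed, 0% none).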

Lucilia cuprina = Lucilia cuprina test; details: application rate 100 ppm; L1 larvae; after 2 days
How it was run: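 About 20 L1 larvae placed in vessels with minced horsemeat treated with compound (DMSO concentrate diluted in water) at the desired concentration. Kill (%) scored after 2 days; 100% means all larvae dead, 0% none.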

Ctenocephalides felis [2] = assay: Ctenocephalides felis in vitro contact test with adult cat fleas; details: after 48 h, fleas dead or moribund
Description: Ctenocephalides felis—In Vitro Contact Tests with Adult Cat Fleas
For the coating of the test tubes, 9 mg of active ingredient are first dissolved in 1 ml of acetone p.a. and then diluted to the desired concentration with acetone p.a. 250 μl of the solution are distributed homogeneously on the inner walls and base of a 25 ml test tube by turning and rocking on an orbital shaker (rocking rotation at 30 rpm for 2 h). With 900 ppm active ingredient solution and internal surface 44.7 cm^2, given homogeneous distribution, an area-based dose of 5 μg/cm^2 is achieved.
After the solvent has evaporated off, the tubes are populated with 5-10 adult cat fleas (Ctenocephalides felis), sealed with a perforated plastic lid and incubated in a horizontal position at room temperature and ambient humidity. After 48 h, efficacy is determined. To this end, the test tubes are stood upright and the fleas are knocked to the base of the tube. Fleas which remain motionless at the base or move in an uncoordinated manner are considered to be dead or moribund.
100% efficacy means that all the fleas were dead or moribund. 0% efficacy means that no fleas were harmed.

Musca domestica = Musca domestica test; details: application rate 100 ppm; adult houseflies; after 2 days
Description: Solvent: dimethyl sulphoxide
To produce an appropriate active ingredient formulation, 10 mg of active ingredient are mixed with 0.5 ml of dimethyl sulphoxide, and the concentrate is diluted with water to the desired concentration.
Vessels containing a sponge treated with sugar solution and the active ingredient formulation of the desired concentration are populated with 10 adult houseflies (Musca domestica).
After 2 days, the kill in % is determined. 100% means that all of the flies have been killed; 0% means that none of the flies have been killed.

[3] = application rate 5 μg/cm^2 (500 g/ha)
[4] = application rate 1 μg/cm^2 (100 g/ha)

SMILES | efficacy (kill in %) (Ctenocephalides felis [1]) [%] | efficacy (laying of fertile eggs) (Boophilus microplus) [%] | efficacy (Phaedon cochleariae; application rate 500 g/ha) [%] | efficacy (Myzus persicae; application rate 100 g/ha) [%] | efficacy (Rhipicephalus sanguineus; [3]) [%] | efficacy (Tetranychus urticae; application rate 500 g/ha) [%] | efficacy (Spodoptera frugiperda; application rate 500 g/ha) [%] | efficacy (kill in %) (Lucilia cuprina) [%] | efficacy (Phaedon cochleariae; application rate 100 g/ha) [%] | efficacy (Tetranychus urticae; application rate 100 g/ha) [%] | efficacy (Spodoptera frugiperda; application rate 100 g/ha) [%] | efficacy (Ctenocephalides felis [2]; [3]) [%] | efficacy (kill in %) (Musca domestica) [%] | efficacy (Ctenocephalides felis [2]; [4]) [%] | efficacy (Myzus persicae; application rate 500 g/ha) [%] | efficacy (Rhipicephalus sanguineus; [4]) [%] | efficacy (Tetranychus urticae; application rate 20 g/ha) [%]
Cn1nc(C(F)(F)C(F)(F)F)c(C(F)(F)F)c1-n1cc(-c2cccc(NC(=O)C(F)(F)C(F)F)c2)cn1 [Example 1-009] | 100 | 100 | 100 | 100 | 100 | 100 | 100 | 100 |  |  |  |  |  |  |  |  | 
Cn1nc(C(F)(F)C(F)(F)F)c(C(F)(F)F)c1-n1cc(-c2cccc(NC(=O)c3ccccc3F)c2)cn1 [Example 1-012] | 100 | 100 |  | 90 | 100 |  |  | 100 | 100 | 100 | 100 | 100 |  |  |  |  | 
Cn1nc(C(F)(F)C(F)(F)F)c(C(F)(F)F)c1-n1cc(-c2cccc(NC(=O)c3cccc(F)c3)c2)cn1 [Example 1-013] | 100 | 100 |  |  | 100 |  |  | 100 | 100 | 100 | 100 | 100 | 90 |  |  |  | 
Cn1nc(C(F)(F)C(F)(F)F)c(C(F)(F)F)c1-n1cc(-c2cccc(NC(=O)c3cc(F)cc(F)c3)c2)cn1 [Example 1-014] | 100 | 100 |  |  | 100 |  |  | 100 | 100 | 90 | 100 |  | 90 | 80 |  |  | 
Cn1nc(C(F)(F)C(F)(F)F)c(C(F)(F)F)c1-n1cc(-c2cccc(NC(=O)c3ccsc3)c2)cn1 [Example 1-016] | 100 | 100 | 100 |  | 100 | 100 | 100 | 100 |  |  |  | 100 |  |  | 90 |  | 
Cn1nc(C(F)(F)C(F)(F)F)c(C(F)(F)F)c1-n1cc(-c2cccc(NC(=O)c3cccs3)c2)cn1 [Example 1-017] | 100 | 100 |  | 90 | 100 |  |  | 100 | 100 | 100 | 100 |  |  |  |  |  | 
Cn1nc(C(F)(F)C(F)(F)F)c(C(F)(F)F)c1-n1cc(-c2cccc(NC(=O)c3cccnc3Cl)c2)cn1 [Example 1-028] | 100 | 100 |  |  | 100 |  |  | 100 | 100 | 100 | 100 | 100 | 100 |  |  |  | 
Cn1nc(C(F)(F)C(F)(F)F)c(C(F)(F)F)c1-n1cc(-c2ccc(F)c(NC(=O)C(F)(F)C(F)F)c2)cn1 [Example 1-033] | 100 | 100 |  | 90 |  |  |  | 100 | 83 | 100 |  |  |  |  |  | 100 | 
Cn1nc(C(F)(F)C(F)(F)F)c(C(F)(F)F)c1-n1cc(-c2ccc(F)c(NC(=O)c3ccncn3)c2)cn1 [Example 1-034] | 100 | 100 |  |  | 100 |  |  | 100 | 100 | 100 | 100 | 100 | 100 |  |  |  | 
COCC(=O)Nc1cc(-c2cnn(-c3c(C(F)(F)F)c(C(F)(F)C(F)(F)F)nn3C)c2)ccc1F [Example 1-048] | 95 | 100 |  | 90 | 100 |  |  | 95 |  | 100 |  |  |  |  |  |  | 
Cn1nc(C(F)(F)C(F)(F)F)c(C(F)(F)F)c1-n1cc(-c2ccc(F)c(NC(=O)C3(C)CC3)c2)cn1 [Example 1-058] | 100 | 100 |  |  | 100 |  |  | 100 |  | 100 | 83 | 100 | 80 |  |  |  | 
Cn1nc(C(F)(F)C(F)(F)F)c(C(F)(F)F)c1-n1cc(-c2ccc(F)c(NC(=O)c3ccc(Cl)c(F)c3)c2)cn1 [Example 1-096] | 100 | 100 |  |  | 100 |  |  | 100 | 100 | 100 | 100 | 100 | 90 |  |  |  | 
CN(C)C(=O)C(=O)Nc1cc(-c2cnn(-c3c(C(F)(F)F)c(C(F)(F)C(F)(F)F)nn3C)c2)ccc1F [Example 1-127] | 100 | 100 |  |  | 100 |  |  | 100 | 100 |  | 100 | 100 | 100 |  |  |  | 
Cc1ncc(-c2cnn(-c3c(C(F)(F)F)c(C(F)(F)C(F)(F)F)nn3C)c2)cc1NC(=O)c1ccc(F)cc1 [Example 2-003] | 100 | 100 |  |  | 100 |  |  | 100 | 100 | 100 | 100 |  | 100 |  |  |  | 
Cn1nc(C(F)(F)C(F)(F)F)c(C(F)(F)F)c1-n1cc(-c2cnc(F)c(NC(=O)c3ccncc3)c2)cn1 [Example 2-005] | 100 | 100 |  |  |  |  |  | 100 | 100 |  | 100 | 100 | 90 |  |  | 80 | 100
Cn1nc(C(F)(F)C(F)(F)F)c(C(F)(F)F)c1-n1cc(-c2cnc(Cl)c(NC(=O)c3ccncc3)c2)cn1 [Example 2-006] | 100 | 100 |  |  | 80 |  |  | 100 | 100 | 100 | 100 | 100 | 90 |  |  |  | 
